Values of other authors as cited in patent US6486186B2, “Thiazole compounds as cyclic AMP-specific phosphodiesterase inhibitors and method of using the same” (ICOS Corporation, priority 1999, dated 2002).

Key:
recombinant human PDE4 = settings: literature value; read-out: reported IC50 with respect to inhibiting recombinant human PDE4
[1] = in vivo

## COc1ccc(C2CNC(=O)C2)cc1OC1CCCC1 (stereo not drawn) [Rolipram]
Recombinant human PDE4
  IC50: ~200 nM

## COc1ccc([C@@H]2CNC(=O)C2)cc1OC1CCCC1 (single isomer, unassigned) [(−)-enantiomer of rolipram]
[1]
  emetic potential relative to the (+)-enantiomer (S-rolipram): about ten-fold more emetic

## COC(=O)N1CC(c2ccc(OC)c(OC3CCCC3)c2)C(C)(C(C)=O)C1 (stereo not drawn) [structural formula (I)]
Recombinant human PDE4
  IC50: ~2 nM
